According to the supplement of paper PMC8024199:
± gives the standard deviation of the averaged measurements.

Key:
Assay in all cases: drug sensitivity score (DSS) (DSS score); higher = more sensitive (stronger growth inhibition); extreme values may be limits of the assay
[1] = system: Ba/F3 P210-BCR-ABL1 RUNX1-/- (mouse)
Method in brief: (§1)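 A drug sensitivity score summarised each dose-response curve, with luminescence from CellTiter-Glo scaled between vehicle and positive-control wells. Values are the mean of two replicates. The cells were mouse Ba/F3 clones that were CRISPR/Cas9-edited at a target exon or were edited controls, exposed on pre-printed 384-well plates to a 528-compound library at five concentrations spanning a 10,000-fold range. Plates held 10,000 cells per well in RPMI with 10% FBS for 72 h at 37 °C and 5% CO2.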

[2] = system: Ba/F3 P210-BCR-ABL1 RUNX1wt/wt control (mouse)
Method in brief: as §1

[3] = system: Ba/F3 P210-BCR-ABL1 RUNX1-/mut (mouse)
Method in brief: as §1

Cc1ccc(C(=O)Nc2ccc(Oc3cc4cnn(C)c4cc3-c3cn[nH]c3)c(F)c2)c(=O)n1-c1ccc(F)cc1 [Merestinib]
drug sensitivity score [1]: 0 | drug sensitivity score [2]: 0.05 ± 0.071 | drug sensitivity score [3]: 0

CN(C)C(=N)NC(=N)N [Metformin]
drug sensitivity score [1]: 0 | drug sensitivity score [2]: 0 | drug sensitivity score [3]: 0

CNC(=O)c1nn(C)c2c1C(C)(C)Cc1cnc(Nc3ccc(N4CCN(C)CC4)cc3)nc1-2 [Milciclib]
drug sensitivity score [1]: 20.9 ± 0.78 | drug sensitivity score [2]: 10.8 ± 0.71 | drug sensitivity score [3]: 14.7 ± 0.85

CCCCCCCCCCCCCCCCOP(=O)([O-])OCC[N+](C)(C)C [Miltefosine]
drug sensitivity score [1]: 7.05 ± 0.21 | drug sensitivity score [2]: 2 ± 1.4 | drug sensitivity score [3]: 5.5 ± 1.3

CCS(=O)(=O)Nc1ccc(Oc2ccc(F)cc2F)c(-c2cn(C)c(=O)c3[nH]ccc23)c1 [Mivebresib]
drug sensitivity score [1]: 41.35 ± 0.21 | drug sensitivity score [2]: 34 ± 1.3 | drug sensitivity score [3]: 41 ± 2

Nc1ccccc1NC(=O)c1ccc(CNc2nccc(-c3cccnc3)n2)cc1 [Mocetinostat]
drug sensitivity score [1]: 17.5 ± 1.6 | drug sensitivity score [2]: 17.1 ± 0.14 | drug sensitivity score [3]: 17.4 ± 2.3

CCNC(=O)C[C@@H]1N=C(c2ccc(Cl)cc2)c2cc(OC)ccc2-n2c(C)nnc21 [Molibresib]
drug sensitivity score [1]: 18.4 ± 1.6 | drug sensitivity score [2]: 12.1 ± 0.14 | drug sensitivity score [3]: 18.1 ± 2

N#CCNC(=O)c1ccc(-c2ccnc(Nc3ccc(N4CCOCC4)cc3)n2)cc1 [Momelotinib]
drug sensitivity score [1]: 8.45 ± 1.1 | drug sensitivity score [2]: 6.15 ± 0.64 | drug sensitivity score [3]: 5.9 ± 1.1

CCCN(CCC)C(=O)C1=Cc2ccc(-c3ccc(C(=O)N4CCCC4)cc3)cc2N=C(N)C1 [Motolimod]
drug sensitivity score [1]: 1.45 ± 0.35 | drug sensitivity score [2]: 0 | drug sensitivity score [3]: 1 ± 1.1

FC(F)(F)c1ccc(/C=C/c2nc(COc3ccc(CCCCn4ccnn4)cc3)co2)cc1 [Mubritinib]
drug sensitivity score [1]: 5.1 ± 0.28 | drug sensitivity score [2]: 5.95 ± 0.21 | drug sensitivity score [3]: 5.55 ± 0.49

Cc1cc(OCc2nnc(SC3CCCC3)n2-c2cccnc2)ccc1-c1ccc(S(C)(=O)=O)cc1 [NMS-873]
drug sensitivity score [1]: 16.3 ± 1.6 | drug sensitivity score [2]: 22.2 ± 0.71 | drug sensitivity score [3]: 14.7 ± 1.1

COc1ccc(-c2ccc3ncc4c(c3c2)n(-c2ccc(N3CCNCC3)c(C(F)(F)F)c2)c(=O)n4C)cn1 [NVP-BGT226]
drug sensitivity score [1]: 22.4 ± 2.3 | drug sensitivity score [2]: 14.5 | drug sensitivity score [3]: 23.1 ± 1.4

Cc1ccc(C(=O)Nc2cccc(C(F)(F)F)c2)cc1Nc1nc(-c2cccnc2)nc2c1cnn2C [NVP-BHG712]
drug sensitivity score [1]: 7.45 ± 0.35 | drug sensitivity score [2]: 5.4 ± 0.42 | drug sensitivity score [3]: 5.15 ± 0.071

COc1cc2c(cc1OC(C)C)[C@H](c1ccc(Cl)cc1)N(c1ccc(N(C)C[C@H]3CC[C@H](N4CCN(C)C(=O)C4)CC3)cc1)C(=O)C2 [NVP-CGM097]
drug sensitivity score [1]: 8.7 ± 0.71 | drug sensitivity score [2]: 6.3 ± 0.28 | drug sensitivity score [3]: 8.8 ± 3

CN[C@@H](C)C(=O)N[C@H](C(=O)N1CCC[C@H]1c1nc(C(=O)c2ccc(F)cc2)cs1)C1CCCCC1 [NVP-LCL161]
drug sensitivity score [1]: 26.4 ± 4.4 | drug sensitivity score [2]: 23.6 ± 2.8 | drug sensitivity score [3]: 7.6 ± 8.5

Cn1c(Nc2ccc(C(F)(F)F)cc2)nc2cc(Oc3ccnc(-c4ncc(C(F)(F)F)[nH]4)c3)ccc21 [NVP-RAF265]
drug sensitivity score [1]: 2.5 ± 1.8 | drug sensitivity score [2]: 0 | drug sensitivity score [3]: 0

CC(=O)c1cc2c(o1)C(=O)c1ccccc1C2=O [Napabucasin]
drug sensitivity score [1]: 17.4 ± 0.14 | drug sensitivity score [2]: 11.1 ± 2.5 | drug sensitivity score [3]: 19.4 ± 3

CN1C(=O)N[C@H](Cc2c[nH]c3c(Cl)cccc23)C1=O [Necrostatin 2]
drug sensitivity score [1]: 0 | drug sensitivity score [2]: 0 | drug sensitivity score [3]: 0

O=c1ncn2nc(Sc3ccc(F)cc3F)ccc2c1-c1c(Cl)cccc1Cl [Neflamapimod]
drug sensitivity score [1]: 1.9 ± 0.71 | drug sensitivity score [2]: 0 | drug sensitivity score [3]: 0.85 ± 1.2

CCOc1cc2ncc(C#N)c(Nc3ccc(OCc4ccccn4)c(Cl)c3)c2cc1NC(=O)/C=C/CN(C)C [Neratinib]
drug sensitivity score [1]: 2.35 ± 1.5 | drug sensitivity score [2]: 0 | drug sensitivity score [3]: 1.5 ± 2.1

COC(=O)c1ccc2c(c1)NC(=O)/C2=C(\Nc1ccc(N(C)C(=O)CN2CCN(C)CC2)cc1)c1ccccc1 [Nintedanib]
drug sensitivity score [1]: 17.4 | drug sensitivity score [2]: 5.4 ± 0.14 | drug sensitivity score [3]: 8.15 ± 4.6

NC(=O)c1cccc2cn(-c3ccc([C@@H]4CCCNC4)cc3)nc12 [Niraparib]
drug sensitivity score [1]: 7.8 ± 0.99 | drug sensitivity score [2]: 2.7 ± 0.71 | drug sensitivity score [3]: 8.15 ± 3.3

CC(O)c1cc(C(=O)N[C@@H](C)Cn2ccc(-c3ccc(C#N)c(Cl)c3)n2)n[nH]1 (stereo partly specified) [ODM-201]
drug sensitivity score [1]: 2.55 ± 0.071 | drug sensitivity score [2]: 0 | drug sensitivity score [3]: 2.05 ± 1.9

CC(=O)c1cnc2ccc(-c3cc(Cl)c(O)c(Cl)c3)nc2c1N[C@H]1CC[C@H](CN(C)C)CC1 [OTS167]
drug sensitivity score [1]: 22.1 ± 0.78 | drug sensitivity score [2]: 17 ± 0.42 | drug sensitivity score [3]: 20.4 ± 0.92

C=CC(=O)Nc1cccc(Oc2nc(Nc3ccc(N4CCN(C)CC4)cc3)nc3ccsc23)c1 [Olmutinib]
drug sensitivity score [1]: 0.65 ± 0.92 | drug sensitivity score [2]: 0 | drug sensitivity score [3]: 0.45 ± 0.64

COC(=O)C[C@](O)(CCCC(C)(C)O)C(=O)O[C@@H]1C(OC)=C[C@]23CCCN2CCc2cc4c(cc2[C@H]13)OCO4 [Omacetaxine]
drug sensitivity score [1]: 33.8 ± 2.5 | drug sensitivity score [2]: 28.8 ± 0.92 | drug sensitivity score [3]: 35.4 ± 3.7

CC1(C)CC[C@]2(NC(=O)C(C)(F)F)CC[C@]3(C)[C@H](C(=O)C=C4[C@@]5(C)C=C(C#N)C(=O)C(C)(C)[C@@H]5CC[C@]43C)[C@@H]2C1 [Omaveloxolone]
drug sensitivity score [1]: 22.9 ± 0.28 | drug sensitivity score [2]: 17.2 ± 0.14 | drug sensitivity score [3]: 22.4 ± 0.78

COc1ncc(-c2ccc3nccc(-c4ccnnc4)c3c2)cc1NS(=O)(=O)c1ccc(F)cc1F [Omipalisib]
drug sensitivity score [1]: 12.3 ± 1.4 | drug sensitivity score [2]: 7.8 ± 0.28 | drug sensitivity score [3]: 11.9 ± 3.4

CC(C)c1cc(C(=O)N2Cc3ccc(CN4CCN(C)CC4)cc3C2)c(O)cc1O [Onalespib]
drug sensitivity score [1]: 19.1 ± 2.9 | drug sensitivity score [2]: 14.6 ± 0.21 | drug sensitivity score [3]: 17.8 ± 1.1

COC[C@H](NC(=O)c1cnc(C)s1)C(=O)N[C@@H](COC)C(=O)N[C@@H](Cc1ccccc1)C(=O)[C@@]1(C)CO1 [Oprozomib]
drug sensitivity score [1]: 22.2 ± 1.3 | drug sensitivity score [2]: 19.2 ± 0.35 | drug sensitivity score [3]: 20.5 ± 1.6

CNC(=O)c1ccc2cc([C@@]3(O)CCn4cncc43)ccc2c1 [Orteronel]
drug sensitivity score [1]: 0 | drug sensitivity score [2]: 0 | drug sensitivity score [3]: 0

C=CC(=O)Nc1cc(Nc2nccc(-c3cn(C)c4ccccc34)n2)c(OC)cc1N(C)CCN(C)C [Osimertinib]
drug sensitivity score [1]: 5.6 ± 0.28 | drug sensitivity score [2]: 1.25 ± 1.2 | drug sensitivity score [3]: 5.6 ± 0.57

O=C(O)C(=O)O.[NH-][C@@H]1CCCC[C@H]1[NH-].[Pt+2] [Oxaliplatin]
drug sensitivity score [1]: 29 ± 0.14 | drug sensitivity score [2]: 25.85 ± 0.21 | drug sensitivity score [3]: 28.6 ± 0.71

C=CCc1cccc(/C=N/NC(=O)CN2CCN(Cc3ccccc3)CC2)c1O [PAC-1]
drug sensitivity score [1]: 4.95 ± 0.21 | drug sensitivity score [2]: 0.15 ± 0.21 | drug sensitivity score [3]: 4.65 ± 0.78

O=C(Nc1cccnc1)N1CCC(Cc2cccc(Oc3ccc(C(F)(F)F)cn3)c2)CC1 [PF-3845]
drug sensitivity score [1]: 2.15 ± 0.64 | drug sensitivity score [2]: 2.1 ± 0.14 | drug sensitivity score [3]: 1.9 ± 2.7

COc1ccccc1S(=O)(=O)Nc1ccc2c(c1)CN(C)C(=O)N2 [PFI-1]
drug sensitivity score [1]: 16 ± 2.8 | drug sensitivity score [2]: 9.35 ± 0.071 | drug sensitivity score [3]: 15.9 ± 3.9

CN1CCN(c2cc(C(=O)Nc3ccc4c(c3)-c3c(c(C(N)=O)nn3-c3ccc(F)cc3)CC4)c(Cl)cn2)CC1 [PHA 408]
drug sensitivity score [1]: 10.2 ± 1.1 | drug sensitivity score [2]: 7.4 ± 0.57 | drug sensitivity score [3]: 8.95 ± 1.1

O=C(Nc1cc(Cl)cc2c1[nH]c1cnccc12)c1cccnc1 [PS-1145]
drug sensitivity score [1]: 0.4 ± 0.57 | drug sensitivity score [2]: 0 | drug sensitivity score [3]: 0.7 ± 0.99

COc1cc(Br)c(Nc2nc(-c3c(C)nc4ncccn34)cs2)c(Br)c1 [PTC-209]
drug sensitivity score [1]: 9.05 ± 2.6 | drug sensitivity score [2]: 7.5 ± 0.14 | drug sensitivity score [3]: 7.8 ± 2.4

C1=N/C2=N/c3ccc(OCCN4CCCC4)c(c3)COC/C=C/COCc3cccc(c3)C(=C1)N2 [Pacritinib]
drug sensitivity score [1]: 13.8 ± 1.6 | drug sensitivity score [2]: 7 ± 0.14 | drug sensitivity score [3]: 10.8 ± 2.6

CC(=O)c1c(C)c2cnc(Nc3ccc(N4CCNCC4)cn3)nc2n(C2CCCC2)c1=O [Palbociclib]
drug sensitivity score [1]: 11.4 ± 1.3 | drug sensitivity score [2]: 2.25 ± 0.21 | drug sensitivity score [3]: 8.85 ± 1.1

COc1ccc(COc2cc3oc(=O)c4cc(C(C)O)ccc4c3cc2OC)cc1 (stereo unspecified) [Palomid-529]
drug sensitivity score [1]: 0.05 ± 0.071 | drug sensitivity score [2]: 0.4 ± 0.42 | drug sensitivity score [3]: 1.7 ± 2.4

Nc1nc2[nH]cc(CCc3ccc(C(=O)N[C@@H](CCC(=O)O)C(=O)O)cc3)c2c(=O)[nH]1 [Pemetrexed]
drug sensitivity score [1]: 27.8 ± 1.6 | drug sensitivity score [2]: 26.6 ± 0.42 | drug sensitivity score [3]: 27 ± 0.71

CCCCCCCCCCCCCCCCCCOP(=O)([O-])OC1CC[N+](C)(C)CC1 [Perifosine]
drug sensitivity score [1]: 0 | drug sensitivity score [2]: 0 | drug sensitivity score [3]: 0

NS(=O)(=O)OC[C@@H]1C[C@@H](n2ccc3c(N[C@H]4CCc5ccccc54)ncnc32)C[C@@H]1O [Pevonedistat]
drug sensitivity score [1]: 16.1 ± 2.4 | drug sensitivity score [2]: 7.65 ± 0.21 | drug sensitivity score [3]: 15.4 ± 2

FC(F)(F)c1ccc(CNc2ccc(Cc3c[nH]c4ncc(Cl)cc34)cn2)cn1 [Pexidartinib]
drug sensitivity score [1]: 0.05 ± 0.071 | drug sensitivity score [2]: 0.1 ± 0.14 | drug sensitivity score [3]: 0.1 ± 0.14

CC(C)N(C[C@H]1O[C@@H](n2cnc3c(N)ncnc32)[C@H](O)[C@@H]1O)[C@H]1C[C@@H](CCc2nc3cc(C(C)(C)C)ccc3[nH]2)C1 [Pinometostat]
drug sensitivity score [1]: 0 | drug sensitivity score [2]: 0 | drug sensitivity score [3]: 0
